# Measured values as given in paper PMC10187937, “Streptothricin F is a bactericidal antibiotic effective against highly drug-resistant gram-negative bacteria that interacts with the 30S subunit of the 70S ribosome” (PLOS Biology, 2023).
# Read-outs that look alike come from different tables or passages of the source.
# Key:
# [1] = tested on: T1, Klebsiella pneumoniae BIDMC 2; parameters: broth microdilution minimal inhibitory concentration against multidrug-resistant clinical isolates; details: KPC-3; inhibitor
# T1 construct: BIDMC 2
# Source text: (§1) Using broth microdilution minimal inhibitory concentration (MIC) testing, we determined the MIC of S-F, S-D, and nourseothricin for a large group of multidrug-resistant CRE. These included strains expressing metallo- and/or serine carbapenemases and the pandrug-resistant, NDM-1–expressing Klebsiella pneumoniae Nevada strain, AR-0663 [18]. For these CRE (n = 39), MIC50 and MIC90 for S-F, S-D, and nourseothricin, respectively, were 2 and 4 (range 1 to 4) μM; 0.25 and 0.5 (range 0.25 to 2) μM; and 0.5 and 1 (range 0.25 to 2) μM. The average MIC was 5.6-fold greater for S-F than for S-D and 4.2-fold greater for S-F than for nourseothricin. […] CRE isolates were from the FDA-CDC Antimicrobial Resistance Isolate Bank (AR-Bank) including the Nevada Strain (AR-0636) and the BIDMC clinical collection sequenced as part of the CRE genomics project. A. baumannii isolates were from the AR-Bank and the Multidrug Resistant Organism Repository and Surveillance Network (MRSN) at the Walter Reed Army Institute of Research (WRAIR). Strains are listed in S3 Table. The single ribosomal operon strain, E. coli SQ110, was from the Coli Genetics Stock Center (Yale University, New Haven, CT) and was originally described by Squire and colleagues.
# Escherichia coli BIDMC 6 = tested on: T2, Escherichia coli BIDMC 6; parameters: broth microdilution minimal inhibitory concentration against multidrug-resistant clinical isolates; details: KPC-2; inhibitor
# T2 construct: BIDMC 6
# Source text: as §1
# [2] = tested on: T3, Klebsiella pneumoniae BIDMC 4; parameters: broth microdilution minimal inhibitory concentration against multidrug-resistant clinical isolates; details: KPC-3; inhibitor
# T3 construct: BIDMC 4
# Source text: as §1
# [3] = tested on: T4, Klebsiella pneumoniae BIDMC 7; parameters: broth microdilution minimal inhibitory concentration against multidrug-resistant clinical isolates; details: KPC-3; inhibitor
# T4 construct: BIDMC 7
# Source text: as §1
# Escherichia coli BIDMC 3 = tested on: T5, Escherichia coli BIDMC 3; parameters: broth microdilution minimal inhibitory concentration against multidrug-resistant clinical isolates; details: KPC-2; inhibitor
# T5 construct: BIDMC 3
# Source text: as §1
# [4] = tested on: T6, Enterobacter cloacae BIDMC 8; parameters: broth microdilution minimal inhibitory concentration against multidrug-resistant clinical isolates; details: KPC-3; inhibitor
# T6 construct: BIDMC 8
# Source text: as §1
# [5] = tested on: T7, Enterobacter cloacae FDA-CDC 136; parameters: broth microdilution minimal inhibitory concentration against multidrug-resistant clinical isolates; details: KPC; inhibitor
# T7 construct: FDA-CDC 136
# Source text: as §1
# [6] = tested on: T8, Klebsiella pneumoniae FDA-CDC 117; parameters: broth microdilution minimal inhibitory concentration against multidrug-resistant clinical isolates; details: KPC-3; inhibitor
# T8 construct: FDA-CDC 117
# Source text: as §1
# [7] = tested on: T9, Escherichia coli BIDMC 15; parameters: broth microdilution minimal inhibitory concentration against multidrug-resistant clinical isolates; details: KPC-2; inhibitor
# T9 construct: BIDMC 15
# Source text: as §1
# [8] = tested on: T10, Klebsiella pneumoniae BIDMC 5; parameters: broth microdilution minimal inhibitory concentration against multidrug-resistant clinical isolates; details: KPC-3; inhibitor
# T10 construct: BIDMC 5
# Source text: as §1
# Escherichia coli BIDMC 9 = tested on: T11, Escherichia coli BIDMC 9; parameters: broth microdilution minimal inhibitory concentration against multidrug-resistant clinical isolates; details: KPC-2; inhibitor
# T11 construct: BIDMC 9
# Source text: as §1
# [9] = tested on: T12, Klebsiella pneumoniae BIDMC 1; parameters: broth microdilution minimal inhibitory concentration against multidrug-resistant clinical isolates; details: KPC-3; inhibitor
# T12 construct: BIDMC 1
# Source text: as §1
# [10] = tested on: T13, Klebsiella pneumoniae BIDMC 10; parameters: broth microdilution minimal inhibitory concentration against multidrug-resistant clinical isolates; details: KPC-3; inhibitor
# T13 construct: BIDMC 10
# Source text: as §1
# [11] = tested on: T14, Klebsiella oxytoca FDA-CDC 147; parameters: broth microdilution minimal inhibitory concentration against multidrug-resistant clinical isolates; details: KPC; inhibitor
# T14 construct: FDA-CDC 147
# Source text: as §1
# [12] = tested on: T15, Klebsiella pneumoniae BIDMC 11; parameters: broth microdilution minimal inhibitory concentration against multidrug-resistant clinical isolates; details: KPC-4; inhibitor
# T15 construct: BIDMC 11
# Source text: as §1
# [13] = tested on: T16, Escherichia coli BIDMC 17; parameters: broth microdilution minimal inhibitory concentration against multidrug-resistant clinical isolates; details: KPC-2; inhibitor
# T16 construct: BIDMC 17
# Source text: as §1
# [14] = tested on: T17, Klebsiella pneumoniae CDC 636; assay: microbe, parasite or virus in culture; parameters: broth microdilution minimal inhibitory concentration against multidrug-resistant clinical isolates; details: CDC636, NDM
# T17 construct: CDC 636
# Source text: as §1
# [15] = tested on: T18, Acinetobacter baumannii FDA-CDC 308; assay: microbe, parasite or virus in culture; parameters: broth microdilution minimal inhibitory concentration against multidrug-resistant clinical isolates
# T18 construct: FDA-CDC 308
# Source text: as §1
# [16] = tested on: T19, Escherichia coli FDA-CDC 149; assay: microbe, parasite or virus in culture; parameters: broth microdilution minimal inhibitory concentration against multidrug-resistant clinical isolates; details: FDACDC149, NDM
# T19 construct: FDA-CDC 149
# Source text: as §1
# [17] = tested on: T20, Escherichia coli FDA-CDC 119; assay: microbe, parasite or virus in culture; parameters: broth microdilution minimal inhibitory concentration against multidrug-resistant clinical isolates; details: FDACDC119, NDM
# T20 construct: FDA-CDC 119
# Source text: as §1
# [18] = tested on: T21, Escherichia coli FDA-CDC 118; assay: microbe, parasite or virus in culture; parameters: broth microdilution minimal inhibitory concentration against multidrug-resistant clinical isolates; details: FDACDC118, NDM
# T21 construct: FDA-CDC 118
# Source text: as §1
# [19] = tested on: T22, Acinetobacter baumannii FDA-CDC 309; assay: microbe, parasite or virus in culture; parameters: broth microdilution minimal inhibitory concentration against multidrug-resistant clinical isolates
# T22 construct: FDA-CDC 309
# Source text: as §1
# [20] = tested on: T23, Escherichia coli FDA-CDC 128; assay: microbe, parasite or virus in culture; parameters: broth microdilution minimal inhibitory concentration against multidrug-resistant clinical isolates
# T23 construct: FDA-CDC 128
# Source text: as §1
# [21] = tested on: T24, Escherichia coli FDA-CDC 137; assay: microbe, parasite or virus in culture; parameters: broth microdilution minimal inhibitory concentration against multidrug-resistant clinical isolates
# T24 construct: FDA-CDC 137
# Source text: as §1
# [22] = tested on: T25, Enterobacter aerogenes FDA-CDC 161; assay: microbe, parasite or virus in culture; parameters: broth microdilution minimal inhibitory concentration against multidrug-resistant clinical isolates; details: Klebsiella aerogenes, FDACDC161, IMP-4
# T25 construct: FDA-CDC 161
# Source text: as §1
# [23] = tested on: T26, Acinetobacter baumannii FDA-CDC 310; assay: microbe, parasite or virus in culture; parameters: broth microdilution minimal inhibitory concentration against multidrug-resistant clinical isolates
# T26 construct: FDA-CDC 310
# Source text: as §1
# [24] = tested on: T27, Klebsiella pneumoniae FDA-CDC 34; assay: microbe, parasite or virus in culture; parameters: broth microdilution minimal inhibitory concentration against multidrug-resistant clinical isolates
# T27 construct: FDA-CDC 34
# Source text: as §1
# [25] = tested on: T28, Acinetobacter baumannii FDA-CDC 311; assay: microbe, parasite or virus in culture; parameters: broth microdilution minimal inhibitory concentration against multidrug-resistant clinical isolates
# T28 construct: FDA-CDC 311
# Source text: as §1
# [26] = biological target: T29, rProtein L28 (50S, near the E-site of the A. baumannii 70S ribosome) (Acinetobacter baumannii, UniProt B7I4T0); assay: cryo-EM structure of complex; assay type: binding; details: 0.1 uM ribosome, 100 uM ligand (not seen at 10 uM); second site, 50S near E-site; presumably nonspecific per authors
# T29 construct: gene rpmB; native 50S ribosomal protein within purified 70S ribosome; site near the E-site, contact at H20
# T29 sequence (B7I4T0 whole entry): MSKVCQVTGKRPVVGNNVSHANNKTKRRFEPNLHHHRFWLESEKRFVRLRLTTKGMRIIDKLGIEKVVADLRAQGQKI
compound,measurement,setting,value
"NCCC[C@H](N)CC(=O)NCCC[C@H](N)CC(=O)NCCC[C@H](N)CC(=O)N[C@@H]1[C@H](O)[C@@H](OC(N)=O)[C@@H](CO)O[C@H]1NC1=N[C@@H]2C(=O)NC[C@@H](O)[C@H]2N1 [S-D, streptothricin D]",S-D MIC,[1],0.25 µM
same,S-D MIC,Escherichia coli BIDMC 6,0.5 µM
same,S-D MIC,[2],0.25 µM
same,S-D MIC,[3],0.25 µM
same,S-D MIC,Escherichia coli BIDMC 3,0.5 µM
same,S-D MIC,[4],0.25 µM
same,S-D MIC,[5],0.5 µM
same,S-D MIC,[6],0.25 µM
same,S-D MIC,[7],0.5 µM
same,S-D MIC,[8],0.25 µM
same,S-D MIC,Escherichia coli BIDMC 9,0.5 µM
same,S-D MIC,[9],0.25 µM
same,S-D MIC,[10],0.25 µM
same,S-D MIC,[11],0.25 µM
same,S-D MIC,[12],0.25 µM
same,S-D MIC,[13],0.5 µM
same,MIC,[14]; read-out: S-D MIC,0.25 µM
same,MIC,"[15]; FDACDC308, OXA-71, read-out: S-D MIC",0.25 µM
same,MIC,[16]; read-out: S-D MIC,0.5 µM
same,MIC,[17]; read-out: S-D MIC,0.5 µM
same,MIC,[18]; read-out: S-D MIC,1 µM
same,MIC,"[19]; FDACDC309, OXA-23, OXA-82, read-out: S-D MIC",2 µM
same,MIC,"[20]; FDACDC128, NDM-1, read-out: S-D MIC",1 µM
same,MIC,"[21]; FDACDC137, NDM-6, read-out: S-D MIC",0.5 µM
same,MIC,[22]; read-out: S-D MIC,0.5 µM
same,MIC,"[23]; FDACDC310, OXA-23, OXA-82, read-out: S-D MIC",2 µM
same,MIC,"[24]; FDACDC34, IMP-4, read-out: S-D MIC",0.25 µM
same,MIC,"[25]; FDACDC311, OXA-23, OXA-82, read-out: S-D MIC",2 µM
"NCCC[C@H](N)CC(=O)N[C@@H]1[C@H](O)[C@@H](OC(N)=O)[C@@H](CO)O[C@H]1N=C1N[C@@H]2[C@H](O)CNC(=O)[C@H]2N1 [S-F, streptothricin F]",S-F MIC,[1],4 µM
same,S-F MIC,Escherichia coli BIDMC 6,2 µM
same,S-F MIC,[2],2 µM
same,S-F MIC,[3],2 µM
same,S-F MIC,Escherichia coli BIDMC 3,4 µM
same,S-F MIC,[4],4 µM
same,S-F MIC,[5],2 µM
same,S-F MIC,[6],1 µM
same,S-F MIC,[7],2 µM
same,S-F MIC,[8],2 µM
same,S-F MIC,Escherichia coli BIDMC 9,4 µM
same,S-F MIC,[9],2 µM
same,S-F MIC,[10],2 µM
same,S-F MIC,[11],2 µM
same,S-F MIC,[12],2 µM
same,S-F MIC,[13],2 µM
same,MIC,[14]; read-out: S-F MIC,1 µM
same,MIC,"[15]; FDACDC308, OXA-71, read-out: S-F MIC",1 µM
same,MIC,[16]; read-out: S-F MIC,4 µM
same,MIC,[17]; read-out: S-F MIC,4 µM
same,MIC,[18]; read-out: S-F MIC,4 µM
same,MIC,"[19]; FDACDC309, OXA-23, OXA-82, read-out: S-F MIC",8 µM
same,MIC,"[20]; FDACDC128, NDM-1, read-out: S-F MIC",4 µM
same,MIC,"[21]; FDACDC137, NDM-6, read-out: S-F MIC",2 µM
same,MIC,[22]; read-out: S-F MIC,2 µM
same,MIC,"[23]; FDACDC310, OXA-23, OXA-82, read-out: S-F MIC",8 µM
same,MIC,"[24]; FDACDC34, IMP-4, read-out: S-F MIC",2 µM
same,MIC,"[25]; FDACDC311, OXA-23, OXA-82, read-out: S-F MIC",8 µM
same,cryo-EM structure of 70S complex,[26],"S-F and S-D overlap at this site, interacting with H20 of rProtein L28"
